Source: patent publication US20030129629A1, “Methods and compositions for the identification, assessment, prevention, and therapy of human cancers” (Millennium Pharmaceuticals, Inc., priority 2000, published 2003)
Like-named read-outs stand apart in the source and are kept apart here.

Tests used:
[1] = tested on: 60 cancer cell lines (NCI 60 cancer cell line series); conditions: cited from earlier work
[2] = tested on: 60 cancer cell lines (NCI 60 cancer cell line series); assay: NCI-DTP in vitro cancer screen, sulforhodamine B (SRB) growth inhibition, 48 hour exposure; assay type: cell-based, human
How it was run: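 Potency is given as mean −log{GI50} from dose–response curves, manually binned into Low, Medium or High sensitivity. Sixty NCI-DTP tumour lines were treated 48 h with a duplicate, five-dose, ten-fold dilution series, and growth read by SRB staining of cell mass.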

**Q.** What does the source list for `O=c1[nH]cc(F)c(=O)[nH]1` [5-Fluorouracil]?
**A.** −Log (GI50) ([1]; Melanoma SK-MEL-2 CL10005): 3.3; −Log (GI50) ([1]; Melanoma SK-MEL-5 CL10007): 4.9; −Log (GI50) ([1]; Melanoma SK-MEL-28 CL10008): 4.5; −Log (GI50) ([1]; Melanoma UACC-62 CL10020): 4.9; −Log (GI50) ([1]; Melanoma UACC-257 CL10021): 3.9; −Log (GI50) ([1]; NSCLC A549/ATCC CL1004): 5.7; −Log (GI50) ([1]; NSCLC EKVX CL1008): 3.3; −Log (GI50) ([1]; NSCLC HOP-62 CL1026): 4.8; −Log (GI50) ([1]; NSCLC HOP-92 CL1029): 4.0; −Log (GI50) ([1]; NSCLC NCI-H226 CL1013): 3.6; classification of cell line as Low(1), Medium(2), High(3) sensitivity to compound ([2]; Breast BT-549 CL5013): 1; classification of cell line as Low(1), Medium(2), High(3) sensitivity to compound ([2]; Breast HS-578T CL5006): 1; classification of cell line as Low(1), Medium(2), High(3) sensitivity to compound ([2]; Breast MCF7(I) CL5001): 3; classification of cell line as Low(1), Medium(2), High(3) sensitivity to compound ([2]; Breast MCF7/ADRr CL5002): 2; classification of cell line as Low(1), Medium(2), High(3) sensitivity to compound ([2]; Breast MDA-MB-231 CL5005): 1; classification of cell line as Low(1), Medium(2), High(3) sensitivity to compound ([2]; Breast MDA-MB-435 CL5011): 2; classification of cell line as Low(1), Medium(2), High(3) sensitivity to compound ([2]; Breast MDA-N CL5012): 2; classification of cell line as Low(1), Medium(2), High(3) sensitivity to compound ([2]; Breast T-47D CL5014): 2; classification of cell line as Low(1), Medium(2), High(3) sensitivity to compound ([2]; CNS SF-268 CL12014): 2; classification of cell line as Low(1), Medium(2), High(3) sensitivity to compound ([2]; CNS SF-295 CL12015): 2; classification of cell line as Low(1), Medium(2), High(3) sensitivity to compound ([2]; CNS SF-539 CL12016): 3; classification of cell line as Low(1), Medium(2), High(3) sensitivity to compound ([2]; CNS SNB-19 CL12002): 1; classification of cell line as Low(1), Medium(2), High(3) sensitivity to compound ([2]; CNS SNB-75(I) CL12005): 1; classification of cell line as Low(1), Medium(2), High(3) sensitivity to compound ([2]; CNS U251(I) CL12009): 2; classification of cell line as Low(1), Medium(2), High(3) sensitivity to compound ([2]; Colon COLO-250 CL4010): 2; classification of cell line as Low(1), Medium(2), High(3) sensitivity to compound ([2]; Colon HCC-2998 CL4002): 3; classification of cell line as Low(1), Medium(2), High(3) sensitivity to compound ([2]; Colon HCT-15 CL4015): 2; classification of cell line as Low(1), Medium(2), High(3) sensitivity to compound ([2]; Colon HCT-116 CL4003): 3; classification of cell line as Low(1), Medium(2), High(3) sensitivity to compound ([2]; Colon HT29(I) CL4001): 2; classification of cell line as Low(1), Medium(2), High(3) sensitivity to compound ([2]; Colon KM12 CL4017): 2; classification of cell line as Low(1), Medium(2), High(3) sensitivity to compound ([2]; Colon SW-620 CL4009): 2; classification of cell line as Low(1), Medium(2), High(3) sensitivity to compound ([2]; Leukemia CCRF-CEM(I) CL7003): 2; classification of cell line as Low(1), Medium(2), High(3) sensitivity to compound ([2]; Leukemia HL-60(I) CL7008): 2; classification of cell line as Low(1), Medium(2), High(3) sensitivity to compound ([2]; Leukemia K562(I) CL7005): 2; classification of cell line as Low(1), Medium(2), High(3) sensitivity to compound ([2]; Leukemia MOLT-4 CL7006): 2; classification of cell line as Low(1), Medium(2), High(3) sensitivity to compound ([2]; Leukemia RPMI-8226(I) CL7010): 3; classification of cell line as Low(1), Medium(2), High(3) sensitivity to compound ([2]; Leukemia SR CL7019): 2; classification of cell line as Low(1), Medium(2), High(3) sensitivity to compound ([2]; Melanoma LOX IMVI CL10001): 2; classification of cell line as Low(1), Medium(2), High(3) sensitivity to compound ([2]; Melanoma M14 CL10014): 2; classification of cell line as Low(1), Medium(2), High(3) sensitivity to compound ([2]; Melanoma MALME-3M CL10002): 2; classification of cell line as Low(1), Medium(2), High(3) sensitivity to compound ([2]; Melanoma SK-MEL-2 CL10005): 1; classification of cell line as Low(1), Medium(2), High(3) sensitivity to compound ([2]; Melanoma SK-MEL-28 CL10008): 2; sensitivity classification Low(1)/Medium(2)/High(3) ([2]; NSCLC NCI-H23(I) CL1001): 2; sensitivity classification Low(1)/Medium(2)/High(3) ([2]; NSCLC NCI-H332M CL1017): 2; sensitivity classification Low(1)/Medium(2)/High(3) ([2]; NSCLC NCI-H460 CL1021): 3; sensitivity classification Low(1)/Medium(2)/High(3) ([2]; NSCLC NCI-H522 CL1003): 2; sensitivity classification Low(1)/Medium(2)/High(3) ([2]; Ovarian IGROV1 CL6010): 2; sensitivity classification Low(1)/Medium(2)/High(3) ([2]; Ovarian OVCAR-3 CL6001): 2; sensitivity classification Low(1)/Medium(2)/High(3) ([2]; Ovarian OVCAR-4 CL6002): 2; sensitivity classification Low(1)/Medium(2)/High(3) ([2]; Ovarian OVCAR-5 CL6003): 1; sensitivity classification Low(1)/Medium(2)/High(3) ([2]; Ovarian OVCAR-8 CL6005): 2; sensitivity classification Low(1)/Medium(2)/High(3) ([2]; Ovarian SK-OV-3 CL6011): 1; sensitivity classification Low(1)/Medium(2)/High(3) ([2]; Prostate DU-145 CL11003): 2; sensitivity classification Low(1)/Medium(2)/High(3) ([2]; Prostate PC-3(I) CL11001): 2; sensitivity classification Low(1)/Medium(2)/High(3) ([2]; Renal 786-0 CL9018): 2; sensitivity classification Low(1)/Medium(2)/High(3) ([2]; Renal A498 CL9013): 2; sensitivity classification Low(1)/Medium(2)/High(3) ([2]; Renal ACHN CL9023): 2; sensitivity classification Low(1)/Medium(2)/High(3) ([2]; Renal CAKI-1 CL9015): 3; sensitivity classification Low(1)/Medium(2)/High(3) ([2]; Renal RXF-393 CL9016): 2; sensitivity classification Low(1)/Medium(2)/High(3) ([2]; Renal SN12C CL9008): 2; sensitivity classification Low(1)/Medium(2)/High(3) ([2]; Renal TK10 CL9024): 1; sensitivity classification Low(1)/Medium(2)/High(3) ([2]; Renal UO-31 CL9004): 2
